Data on 34 compounds can be found in a melting point compilation (Tetko et al.; mined from patent text by program, amines drawn as free bases though some values may be those of a salt).

The compound `COc1cc2c(c3c1OC(C)(C)C3)C(c1cccc(N(C)C(N)=O)c1)=NC(C)(C)C2` registered a melting point of 108 to 109 °C.
`COc1ccc(C(=O)Nc2ccc3ccc(Oc4cccc(Cl)c4)nc3n2)cc1` had a melting point of 182 °C.
As for `C=CCOc1ccc(C(=C)C)cc1`, the figure is 22 to 23 °C.
For the compound `O=C(NCCN1CCNC1=O)Nc1ccccc1`, the melting point fell in the range of 162 to 164 °C.
In the case of `CCOC(=O)COc1ccc2cc(-c3cc4ccccc4s3)ccc2c1Cl`, the melting point was in the range of 187 to 188 °C.
In turn, `O=C1Cc2cccc(C(=O)c3ccc(Cl)cc3)c2N1` registered a melting point of 186 °C.
`Cc1[nH]c2ccccc2c1C[C@@H](N)C(=O)O` displayed a melting point of 244 to 246 °C.
`COc1ccc2c(c1)C(=O)c1nc(-c3ccccc3)sc1C2=O` had a melting point of 221 °C.
As for `COc1cc(Nc2c(C#N)cnc3cc(-c4csc(C=O)c4)sc23)c(Cl)cc1Cl`, the figure is 259 to 261 °C; as for `COc1ccc(Nc2nc(N3CCOCC3)nc(-n3c(C(F)F)nc4c(OC)cccc43)n2)cn1`, 201 to 202 °C.
As to `CC(C)(C)c1ccc(S(=O)(=O)Nc2ncnc(OCCO)c2Br)cc1`, the melting point is 146 to 148 °C.
Compound `Nc1sc(-c2ccccn2)c(CN(C2CCCCC2)C2CCCCC2)c1C(=O)c1ccc(Cl)cc1` had a melting point of 192 to 194 °C.
For `Cc1nc2c(C=O)cccn2c1Br`, the melting point was in the range of 137 to 139 °C.
In turn, `O=C(O)CCCc1ccc([N+](=O)[O-])cn1` displayed a melting point of 108 to 110 °C.
As to `CCCCCCCC[C@H](O)C(=O)O`, the melting point is 70 to 72 °C.
Turning to `Cc1ccc(S(=O)(=O)OCC2Cc3cccc(-c4ccccc4C)c3O2)cc1` (centres undefined), the melting point was in the range of 98 to 100 °C.
With `Cc1cc(N)nc(CCc2nc3cc(-c4ccc(S(=O)(=O)N(C)C)cc4)cnc3[nH]2)c1`, the melting point stood at 157 °C.
Then `CC(C(N)=O)c1ccc(-c2cn3ccccc3n2)cc1` (centres undefined), with 219 to 220 °C; and `CCCCCCCCCCOc1cc(OCCCOc2ccc(OCc3ccccc3)cc2)cc(C(=O)O)c1`, with 107 to 109 °C; and `COc1cc(C(=O)O)ccc1Cn1cc(CCC(=O)N(C)C)c2ccc(CCC(=O)N(C)C)cc21`, with 216 to 218 °C.
As for `O=C(O)c1c[nH]c2c1C(=O)CCCC2`, the figure is 225 to 227 °C; as for `c1ccc2c(c1)CNC1CC2c2ccccc21` (centres undefined), 115 to 117 °C; as for `NC1=CC(=O)CC(c2ccsc2)C1` (centres undefined), 142 to 143 °C.
`Cc1nn2c(-c3ccncc3)ccnc2c1C#N` had a melting point of 220 to 221 °C.
As for `CP(C)(=O)CNc1cc(Oc2ccc(C(F)(F)F)cc2Cl)ccc1[N+](=O)[O-]`, the melting point was 166 to 168 °C.
Consider `O=C(c1ccc(Cl)cc1)C(Cc1nc[nH]n1)c1ccc(Cl)cc1Cl` (centres undefined), for which the melting point is 109 to 111 °C.
Consider `Cc1ccccc1C(=O)Nc1ccc(C(=O)N2CCCC(NC(=O)Cn3ccnc3)c3ccccc32)cc1` (centres undefined), for which the melting point lay within 250 to 252 °C.
On to `O=C(O)c1cccc(-c2ccc3c(c2)N(Cc2cc(Cl)ccc2Cl)CC3)c1`, for which the melting point is 198 to 199 °C.
`CNC1(c2ccccc2Cl)C(=O)N(S(=O)(=O)c2ccc(NC(=O)c3ccccc3Cl)cc2)c2ccc(Cl)cc21` (centres undefined): the melting point is 221 to 222 °C.
In turn, `CC(CN(C)C)On1c(=O)nc(-c2ccc3c(c2)OCO3)c2cc3c(cc21)OCO3` (centres undefined) registered a melting point of 160 to 165 °C.
Then `COc1cc(OC)c2c(=O)cc(-c3cccc(C)c3)oc2c1C1=CCN(C)CC1`, with 109 to 110 °C; and `N#Cc1ccc(N(Cc2ccc(OS(N)(=O)=O)cc2)n2cnnc2)cc1-c1ccc(C(F)(F)F)cc1`, with 177 to 180 °C.
Compound `Cc1nc2c(N)cc(C(=O)N(C)C)cc2n1C` yielded a melting point of 230 to 234 °C.
The compound `CCC1c2cc(F)ccc2-c2ccccc2N1S(=O)(=O)c1ccc(OC(=O)CC(C)(C)C)cc1` (centres undefined) came in with a melting point of 128 °C.
